In brackets after ≈: the same amount, converted by molar mass. Where two headings read alike, the source gives them in different places.

Data set [1] is described as follows: Cytotoxicity in mock-infected MT-4 cells (MTT assay). To be noted: human, mock-infected (uninfected) MT-4 cells, uninfected (mock-infected) MT-4 cells, viability reduced by 50%. The data set is classed as cell-based. The protocol:
(§1) The antiviral activities and cytotoxicities of the target compounds were tested using MT-4 cells infected by HIV-1 IIIB or HIV-2 ROD. […] PF74 was utilized as the control drug in this assay.
(Formazan colour is commonly taken as a measure of viable cells.)

The subject of a further data set is HIV-2 ROD. The data set can be described thus: Anti-HIV-2 activity in MT-4 cells (MTT assay). The data set is classed as cell-based. The conditions noted are these: Human immunodeficiency virus 2, MT4, 120 h, read-out: EC50 HIV-2 ROD. How it is done: as §1
A further data set relates to HIV-1 IIIB. Kind of data set: Anti-HIV-1 activity in MT-4 cells (MTT assay). The data set is classed as cell-based. To be noted: Human immunodeficiency virus 1, IIIB, MT4, 120 h, read-out: EC50 HIV-1 IIIB. The protocol: as §1
The nature of data set [2]: Water solubility assay in phosphate buffer (HPLC). The conditions noted are these: for solubility: aqueous buffer, thermodynamic from solid, HPLC; for water solubility compared with PF74: in words, relative to PF74. It counts as physicochemical. How it is done: To test the changes in water solubility when two more amides or its mimics were introduced to the target compounds, which may lower the solubility of the target compounds, we performed water solubility assays (Table 2). […] Therefore, we cannot calculate its water solubility. It was illustrated that the solubility of compounds varied greatly under different pH. […] We weighed about 1mg of the compound, dissolved it with 1ml of methanol, and diluted it in gradient (twice each time) to obtain 10 concentrations. The peak area of the compound was tested by HPLC, and the peak area- concentration standard curve was drawn. In addition, about 1 mg, 0.6 mg and 0.3 mg of the compound were weighed and dissolved in 1 mL of pH 2, pH 7 and pH 7.4 phosphate buffer to obtain the saturated solution of the compound. HPLC was used to test the peak area under different pH, and the water solubility of the compound was obtained through the standard curve.

Another data set has as its system MT-4 cells. The data set can be described thus: Cytotoxicity in mock-infected MT-4 cells (MTT assay). The data set is classed as cell-based. The conditions noted are these: uninfected (mock-infected) MT-4 cells, viability reduced by 50%. The protocol:
as §1

The next data set relates to HIV. The arrangement: method as in PMID 32612233. The conditions noted are these: MT-4 cells; read-out: EC50 antiviral activity; cited from earlier work.
The mark [3] stands for this setting: phosphate buffer pH 2, saturated solution, read-out: Solubility pH 2.
[4] abbreviates: phosphate buffer pH 7, saturated solution, read-out: Solubility pH 7.
The mark [5] stands for this setting: phosphate buffer pH 7.4, saturated solution, read-out: Solubility pH 7.4.
The mark [6] stands for this setting: MT-4 cells, 50% protection against HIV-induced cytopathic effect, MTT, five days after infection.

Consider `Cc1[nH]c2ccccc2c1CC(=O)NC(Cc1ccccc1)C(=O)N(C)c1ccccc1` (stereo not drawn) [PF74, reference compound], for which the 50% cytotoxic concentration (CC50) at 5 days in data set [1] is more than 294 µM. Also, the EC50 in the data set with HIV-2 ROD is 5.76 ± 2.14 µM; in the data set with HIV-1 IIIB it was 1.08 ± 0.24 µM. Moreover, the solubility in data set [2] (setting [3]) is less than 1.12 µg/mL; in data set [2] (setting [4]), 1.44 ± 0.1 µg/mL (≈ 3.38 µM); in data set [2] (setting [5]), 1.91 ± 0.56 µg/mL (≈ 4.49 µM).
As to `COc1ccc(N(C)C(=O)[C@H](Cc2ccccc2)NC(=O)Cn2ccc(NC(=O)c3ccc(F)cc3)cc2=O)cc1` [TD-1b, (S)-4-fluoro-N-(1-(2-((1-((4-methoxyphenyl)(methyl)amino)-1-oxo-3-phenylpropan-2-yl)amino)-2-oxoethyl)-2-oxo-1,2-dihydropyridin-4-yl)benzamide], in the data set with MT-4 cells, the midpoint of cytotoxicity, the CC50, lay at 34.8 ± 5.75 µM. For the same compound, the concentration for a half-maximal effect (EC50) in the data set with HIV-2 ROD (setting [6]) is 16.2 ± 17.2 µM; in the data set on HIV-1 IIIB (setting [6]), more than 34.8 µM.
`COc1ccc(N(C)C(=O)[C@H](Cc2ccccc2)NC(=O)Cn2ccc(NC(=O)c3ccc(Cl)cc3)cc2=O)cc1` [TD-1e, (S)-4-chloro-N-(1-(2-((1-((4-methoxyphenyl)(methyl)amino)-1-oxo-3-phenylpropan-2-yl)amino)-2-oxoethyl)-2-oxo-1,2-dihydropyridin-4-yl)benzamide]: the midpoint of cytotoxicity with MT-4 cells, the CC50, lay at 25.5 ± 2.9 µM. Moreover, the concentration giving a half-maximal response (EC50) in the data set with HIV-2 ROD (setting [6]) and in the data set with HIV-1 IIIB (setting [6]) was more than 25.5 µM throughout.
Compound `COC(=O)c1ccc(C(=O)Nc2ccn(CC(=O)N[C@@H](Cc3ccccc3)C(=O)N(C)c3ccc(OC)cc3)c(=O)c2)cc1` [TD-1i, methyl (S)-4-((1-(2-((1-((4-methoxyphenyl)(methyl)amino)-1-oxo-3-phenylpropan-2-yl)amino)-2-oxoethyl)-2-oxo-1,2-dihydropyridin-4-yl)carbamoyl)benzoate] gave a CC50 in the data set with MT-4 cells of 96.2 ± 19.8 µM. Further, the EC50 in the data set with HIV-2 ROD (setting [6]) was 15.2 ± 0.55 µM; in the data set with HIV-1 IIIB (setting [6]) it was 19.1 ± 5.08 µM.
On to `COc1ccc(N(C)C(=O)[C@H](Cc2ccccc2)NC(=O)Cn2ccc(NC(=O)c3ccccc3F)cc2=O)cc1` [TD-1d, (S)-2-fluoro-N-(1-(2-((1-((4-methoxyphenyl)(methyl)amino)-1-oxo-3-phenylpropan-2-yl)amino)-2-oxoethyl)-2-oxo-1,2-dihydropyridin-4-yl)benzamide], for which the CC50 with MT-4 cells was found to be 81.4 ± 22.7 µM. Also, the concentration for a half-maximal effect (EC50) in the data set with HIV-2 ROD (setting [6]) is 7.92 ± 0.83 µM; with HIV-1 IIIB (setting [6]), 17.9 ± 2.68 µM.
In the case of `COc1ccc(N(C)C(=O)[C@H](Cc2ccccc2)NC(=O)Cn2ccc(NC(=O)c3ccc(Br)cc3)cc2=O)cc1` [TD-1f, (S)-4-bromo-N-(1-(2-((1-((4-methoxyphenyl)(methyl)amino)-1-oxo-3-phenylpropan-2-yl)amino)-2-oxoethyl)-2-oxo-1,2-dihydropyridin-4-yl)benzamide], the midpoint of cytotoxicity with MT-4 cells, the CC50, lay at 23.5 ± 2.79 µM. Moreover, the EC50 with HIV-2 ROD (setting [6]) and in the data set on HIV-1 IIIB (setting [6]) was more than 23.5 µM each time.
Regarding `COc1ccc(N(C)C(=O)[C@H](Cc2ccccc2)NC(=O)Cn2ccc(NC(=O)c3ccccc3)cc2=O)cc1` [TD-1a, (S)-N-(1-(2-((1-((4-methoxyphenyl)(methyl)amino)-1-oxo-3-phenylpropan-2-yl)amino)-2-oxoethyl)-2-oxo-1,2-dihydropyridin-4-yl)benzamide], in the data set with MT-4 cells, the CC50 worked out at 86.5 ± 29.2 µM. Besides, the results for the EC50 in the data set with HIV-2 ROD (setting [6]) and in the data set on HIV-1 IIIB (setting [6]) were 4.86 ± 1.71 µM and 16.8 ± 0.91 µM, respectively. In addition, the solubility came out at 2.69 ± 0.52 µg/mL (≈ 4.99 µM) in data set [2] (setting [3]), 5.07 ± 2.6 µg/mL (≈ 9.41 µM) in data set [2] (setting [4]) and 8.66 ± 0.41 µg/mL (≈ 16.1 µM) in data set [2] (setting [5]). Further, the “water solubility compared with PF74” value in data set [2] is given as “moderately increased”.
`COc1ccc(N(C)C(=O)[C@H](Cc2ccccc2)NC(=O)Cn2ccc(N)cc2=O)cc1` [TC-2, (S)-2-(2-(4-amino-2-oxopyridin-1(2H)-yl)acetamido)-N-(4-methoxyphenyl)-N-methyl-3-phenylpropanamide]: in the data set with MT-4 cells, it took 261 ± 33.1 µM to reach half-maximal cytotoxicity (CC50). Also, the EC50 with HIV-2 ROD (setting [6]) amounted to 19.7 ± 6.42 µM; in the data set with HIV-1 IIIB (setting [6]), 29.1 ± 4.23 µM.
Turning to `COc1ccc(N(C)C(=O)[C@H](Cc2cc(F)cc(F)c2)NC(=O)Cn2ccc(N)cc2=O)cc1` [FTC-2, (S)-2-(2-(4-amino-2-oxopyridin-1(2H)-yl)acetamido)-3-(3,5-difluorophenyl)-N-(4-methoxyphenyl)-N-methylpropanamide], the CC50 in the data set with MT-4 cells was more than 266 µM. In addition, the values for the 50% effective concentration (EC50) with HIV-2 ROD (setting [6]) and in the data set on HIV-1 IIIB (setting [6]) were 15.6 ± 1.06 µM and 5.36 ± 0.98 µM, respectively. Further, the solubility in data set [2] (setting [3]) came out at 367 ± 58.4 µg/mL (≈ 779 µM); in data set [2] (setting [4]), 261 ± 130 µg/mL (≈ 555 µM); in data set [2] (setting [5]), 437 ± 51.9 µg/mL (≈ 928 µM). Besides, in data set [2], the “water solubility compared with PF74” value is reported as “improved by a factor of hundreds”.
`COc1ccc(N(C)C(=O)[C@H](Cc2ccccc2)NC(=O)Cn2ccc(NC(=O)c3ccc4ccccc4c3)cc2=O)cc1` [TD-1k, (S)-N-(1-(2-((1-((4-methoxyphenyl)(methyl)amino)-1-oxo-3-phenylpropan-2-yl)amino)-2-oxoethyl)-2-oxo-1,2-dihydropyridin-4-yl)-2-naphthamide] came in with a CC50 in the data set with MT-4 cells of 27.6 ± 3.18 µM. Besides, the 50% effective concentration (EC50) with HIV-2 ROD (setting [6]) and with HIV-1 IIIB (setting [6]) was more than 27.6 µM throughout.
Consider `COc1ccc(N(C)C(=O)[C@H](Cc2ccccc2)NC(=O)Cn2ccc(NC(=O)c3ccc(N)cc3)cc2=O)cc1` [TD-1m, (S)-4-amino-N-(1-(2-((1-((4-methoxyphenyl)(methyl)amino)-1-oxo-3-phenylpropan-2-yl)amino)-2-oxoethyl)-2-oxo-1,2-dihydropyridin-4-yl)benzamide], for which the CC50 with MT-4 cells came to 189 ± 2.19 µM. Also, the values for the concentration for a half-maximal effect (EC50) in the data set with HIV-2 ROD (setting [6]) and with HIV-1 IIIB (setting [6]) were 17.1 ± 2.49 µM and more than 189 µM, respectively.
Consider `CC(C)(C#Cc1ccc(-c2ccc(Cl)c3c(NS(C)(=O)=O)nn(CC(F)(F)F)c23)c([C@H](Cc2cc(F)cc(F)c2)NC(=O)Cn2nc(C(F)(F)F)c3c2C(F)(F)[C@@H]2C[C@H]32)n1)S(C)(=O)=O` [GS-6207], for which, in the data set on HIV, the concentration giving a half-maximal response (EC50) was 0.000105 µM.
In turn, `COc1ccc(N(C)C(=O)[C@H](Cc2ccccc2)NC(=O)Cn2ccc(NC(=O)c3ccc([N+](=O)[O-])cc3)cc2=O)cc1` [TD-1l, (S)-N-(1-(2-((1-((4-methoxyphenyl)(methyl)amino)-1-oxo-3-phenylpropan-2-yl)amino)-2-oxoethyl)-2-oxo-1,2-dihydropyridin-4-yl)-4-nitrobenzamide] yielded a CC50 in the data set with MT-4 cells of 31.9 ± 1.73 µM. The 50% effective concentration (EC50) in the data set on HIV-2 ROD (setting [6]) and with HIV-1 IIIB (setting [6]) was more than 31.9 µM in each case.
As for `COc1ccc(N(C)C(=O)[C@H](Cc2ccccc2)NC(=O)Cn2ccc(NC(=O)c3cccc(F)c3)cc2=O)cc1` [TD-1c, (S)-3-fluoro-N-(1-(2-((1-((4-methoxyphenyl)(methyl)amino)-1-oxo-3-phenylpropan-2-yl)amino)-2-oxoethyl)-2-oxo-1,2-dihydropyridin-4-yl)benzamide], half-maximal cytotoxicity in the data set on MT-4 cells (CC50) was put at 61.6 ± 8.44 µM. In addition, the EC50 was 6.59 ± 1.63 µM in the data set with HIV-2 ROD (setting [6]) and 18.9 ± 2.66 µM with HIV-1 IIIB (setting [6]).
With `COc1ccc(C(=O)Nc2ccn(CC(=O)N[C@@H](Cc3ccccc3)C(=O)N(C)c3ccc(OC)cc3)c(=O)c2)cc1` [TD-1h, (S)-4-methoxy-N-(1-(2-((1-((4-methoxyphenyl)(methyl)amino)-1-oxo-3-phenylpropan-2-yl)amino)-2-oxoethyl)-2-oxo-1,2-dihydropyridin-4-yl)benzamide], in the data set on MT-4 cells, the cytotoxic concentration (CC50) was found to be 53.1 ± 5.12 µM. In addition, the EC50 stood at 10.7 ± 3.66 µM with HIV-2 ROD (setting [6]) and 29.6 ± 4.34 µM in the data set with HIV-1 IIIB (setting [6]).
`COc1ccc(N(C)C(=O)[C@H](Cc2ccccc2)NC(=O)Cn2ccc(NC(=O)c3ccc(C#N)cc3)cc2=O)cc1` [TD-1j, (S)-4-cyano-N-(1-(2-((1-((4-methoxyphenyl)(methyl)amino)-1-oxo-3-phenylpropan-2-yl)amino)-2-oxoethyl)-2-oxo-1,2-dihydropyridin-4-yl)benzamide] showed a cytotoxic concentration (CC50) in the data set with MT-4 cells of 137 ± 22.5 µM. For the same compound, the values for the EC50 in the data set on HIV-2 ROD (setting [6]) and with HIV-1 IIIB (setting [6]) were 17.8 ± 2.79 µM and 16.8 ± 0.78 µM, respectively.
`COc1ccc(N(C)C(=O)[C@H](Cc2ccccc2)NC(=O)Cn2ccc(NC(=O)c3ccc(C)cc3)cc2=O)cc1` [TD-1g, (S)-N-(1-(2-((1-((4-methoxyphenyl)(methyl)amino)-1-oxo-3-phenylpropan-2-yl)amino)-2-oxoethyl)-2-oxo-1,2-dihydropyridin-4-yl)-4-methylbenzamide] showed a half-maximal cytotoxic concentration (CC50) in the data set with MT-4 cells of 58.3 ± 4.85 µM. For the same compound, the results for the EC50 with HIV-2 ROD (setting [6]) and with HIV-1 IIIB (setting [6]) were 20.5 ± 8.49 µM and 25.6 ± 7.51 µM, respectively.

One may read the CC50 as the concentration that lowers cell viability or growth by half. Low values mean harm at low concentration, high ones better tolerance by the cells. The EC50 is the midpoint of the concentration-response curve. Broadly, the solubility is the concentration that dissolves in the medium under given conditions.

The values above are taken from publication PMC9658817, “Design, Synthesis, and Mechanistic Study of 2-Pyridone-Bearing Phenylalanine Derivatives as Novel HIV Capsid Modulators” (Molecules, 2022).
